Test results taken from US20250339399A1, “SUPRAMOLECULAR SELF-ASSEMBLY SYSTEM” (Beijing Creatron Institute of Pharmaceutical Research Co., …, priority 2022, published 2025).

Assays:
[1] = Guest molecule concentration after incubation in initial medium without polymer (Comparative Example 1); type: physicochemical; details: 37° C., pH 2.0 hydrochloric acid
Summary of the method: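 Dissolved guest content measured by HPLC of centrifuged supernatants (37° C., 13000 rpm, 5 min) sampled at 0.5 h, 3 h and 6 h. Incubation was polymer-free at 37° C.±0.5° C. in buffers of pH 2.0-7.4; nominal loading was set by maximum clinical dose.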

[2] = Binary supramolecular self-assembly systems of polymer and target: guest concentration over incubation time (Comparative Example 2); type: physicochemical
Protocol: Experiments were conducted according to the steps in Comparative Example 1, and quantitative analysis was carried out using the analytical method for each target to investigate the regulation ability […] stacking.

[3] = Binary (carrier), ternary and quaternary supramolecular self-assembly systems of polymer, carrier building block and target: guest concentration over incubation time (Examples 1-56); type: physicochemical; details: 6 h
Summary of the method: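 Targets were incubated at 37 °C in pH 2.0–7.4 buffers with 0.5% polymer alone or with carrier building blocks, after 0.5 h sonication for ternary systems, and shaken at 200 rpm. Samples at 0.5–6 h were centrifuged and diluted ≥10-fold, and dissolved target was quantified by HPLC; surfactant was added if needed.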

[4] = Comparative Example 3: systems with 10% (W/V) natural building block; type: physicochemical; details: Comparative Example 3: 10% 313; 6 h
Protocol: An initial medium of each above target molecule was used to prepare a solution containing 10% Rubusoside A (313) or 10% (W/V) Mogroside V (319), the solution was sonicated at 37° C. to prepare a solution containing about 100 mg/mL building block 313 or 319 per 1 mL of the initial medium, the clear medium containing the natural building blocks was incubated in a 37° C. constant temperature air bath shaker for 1 hour, and subsequent operations and sample detection followed the steps of Comparative Examples 1 and 2. Considering that each natural building block had different UV absorption and was added at a high concentration, the more specific HPLC method was still used for quantitative determination on the solution concentration of each guest molecule, […].

[5] = 10% (W/V) Rubusoside A as building block; according to US2012/0121696A1; cited from earlier work

## Cc1ccc(-c2cc(C(F)(F)F)nn2-c2ccc(S(N)(=O)=O)cc2)cc1 [Celecoxib]
[1]; 0.5 h
  Concentration of guest molecule measured after different incubated time: 20500 ng/mL
[1]; 3 h
  Concentration of guest molecule measured after different incubated time: 5400 ng/mL
[1]; 6 h
  Concentration of guest molecule measured after different incubated time: 4200 ng/mL
[2]; binary system with 0.5% polymer 101, incubation 0.5 h
  Concentration of the target in the solution measured after different incubation time: 224300 ng/mL
[2]; binary system with 0.5% polymer 101, incubation 3 h
  Concentration of the target in the solution measured after different incubation time: 62200 ng/mL
[2]; binary system with 0.5% polymer 101, incubation 6 h
  Concentration of the target in the solution measured after different incubation time: 54400 ng/mL
[2]; binary system with 0.5% polymer 102, incubation 0.5 h
  Concentration of the target in the solution measured after different incubation time: 19600 ng/mL
[2]; binary system with 0.5% polymer 102, incubation 3 h
  Concentration of the target in the solution measured after different incubation time: 11100 ng/mL
[2]; binary system with 0.5% polymer 102, incubation 6 h
  Concentration of the target in the solution measured after different incubation time: 10600 ng/mL
[2]; binary system with 0.5% polymer 103, incubation 0.5 h
  Concentration of the target in the solution measured after different incubation time: 31100 ng/mL
[2]; binary system with 0.5% polymer 103, incubation 3 h
  Concentration of the target in the solution measured after different incubation time: 32200 ng/mL
[2]; binary system with 0.5% polymer 103, incubation 6 h
  Concentration of the target in the solution measured after different incubation time: 31900 ng/mL
[2]; binary system with 0.5% polymer 106, incubation 0.5 h
  Concentration of the target in the solution measured after different incubation time: 49000 ng/mL
[2]; binary system with 0.5% polymer 106, incubation 3 h
  Concentration of the target in the solution measured after different incubation time: 30100 ng/mL
[2]; binary system with 0.5% polymer 106, incubation 6 h
  Concentration of the target in the solution measured after different incubation time: 26300 ng/mL
[2]; binary system with 0.5% polymer 107, incubation 0.5 h
  Concentration of the target in the solution measured after different incubation time: 36400 ng/mL
[2]; binary system with 0.5% polymer 107, incubation 3 h
  Concentration of the target in the solution measured after different incubation time: 35400 ng/mL
[2]; binary system with 0.5% polymer 107, incubation 6 h
  Concentration of the target in the solution measured after different incubation time: 35300 ng/mL
[2]; binary system with 0.5% polymer 110, incubation 0.5 h
  Concentration of the target in the solution measured after different incubation time: 6400 ng/mL
[2]; binary system with 0.5% polymer 110, incubation 3 h
  Concentration of the target in the solution measured after different incubation time: 11100 ng/mL
[2]; binary system with 0.5% polymer 110, incubation 6 h
  Concentration of the target in the solution measured after different incubation time: 4800 ng/mL
[3]; ternary: 0.25% 102L + 0.1% 313
  Concentration of guest molecule in solution: 988100 ng/mL
  Times that in Comparative Example 3: 31.9 times
[3]; ternary: 0.25% 102L + 1.0% 313
  Concentration of guest molecule in solution: 352300 ng/mL
  Times that in Comparative Example 3: 11.4 times
[4]
  Concentration of guest molecule in solution: 31300 ng/mL
[5]
  Concentration in the solution: 109000 ng/mL
